# Measured values: patent US8889676B2, “3-ureidoisoquinolin-8-yl derivatives” (Actelion Pharmaceuticals Ltd., priority 2011, dated 2014)
# Tested on: S. pneumoniae ATCC 49619
# Assay: Minimal inhibitory concentration (MIC) by broth microdilution (CLSI M7-A7)
# Format: cell-based, Streptococcus pneumoniae
# Settings: Streptococcus pneumoniae, ATCC49619; cation-adjusted Mueller Hinton Broth supplemented with 3% (v/v) lysed horse blood; microdilution method
# Outline: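 Broth microdilution per CLSI M7-A7 in cation-adjusted Mueller-Hinton broth with 3% (v/v) lysed horse blood for S. pneumoniae. MIC in mg/l.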
row,SMILES,MIC [µg/mL]
1,"CCNC(=O)Nc1cc2c(-c3ccnc(C4CC4)c3)ccc(CNC(=O)OC)c2cn1 [Example 160, [5-(2-cyclopropyl-pyridin-4-yl)-3-(3-ethyl-ureido)-isoquinolin-8-ylmethyl]-carbamic acid methyl ester]",2
2,"CCNC(=O)Nc1cc2c(Cl)ccc(CNC(=O)OCCOC)c2cn1 [Example 111, [5-chloro-3-(3-ethyl-ureido)-isoquinolin-8-ylmethyl]-carbamic acid 2-methoxy-ethyl ester]",0.5
3,"CCNC(=O)Nc1cc2c(-c3ccnc(C#N)c3)ccc(CNC(=O)OC)c2cn1 [Example 197, [5-(2-cyano-pyridin-4-yl)-3-(3-ethyl-ureido)-isoquinolin-8-ylmethyl]-carbamic acid methyl ester]",2
4,"CCNC(=O)Nc1cc2c(-c3ccncc3)ccc(CNC(=O)CCC3CC3)c2cn1 [Example 130, 3-cyclopropyl-N-[3-(3-ethyl-ureido)-5-pyridin-4-yl-isoquinolin-8-ylmethyl]-propionamide]",0.5
5,"CCNC(=O)Nc1cc2c(-c3ccncc3)ccc(CNC(=O)OC(C)(C)C)c2cn1 [Example 76, [3-(3-ethyl-ureido)-5-pyridin-4-yl-isoquinolin-8-ylmethyl]-carbamic acid tert-butyl ester]",0.25
6,"CCNC(=O)Nc1cc2c(-c3ccncc3)ccc(CNC(=O)OCCN(C)C)c2cn1 [Example 78, [3-(3-ethyl-ureido)-5-pyridin-4-yl-isoquinolin-8-ylmethyl]-carbamic acid 2-dimethylamino-ethyl ester]",4
7,"CCNC(=O)Nc1cc2c(-c3ccncc3F)ccc(CNC(=O)OC)c2cn1.Cl [Example 184, [3-(3-ethyl-ureido)-5-(3-fluoro-pyridin-4-yl)-isoquinolin-8-ylmethyl]-carbamic acid methyl ester hydrochloride]",1
8,"CCNC(=O)Nc1cc2c(-c3ccncc3)ccc(CNC(=O)OC[C@@H]3CCC(=O)N3)c2cn1.Cl [Example 87, (S)-[3-(3-ethyl-ureido)-5-pyridin-4-yl-isoquinolin-8-ylmethyl]-carbamic acid 5-oxo-pyrrolidin-2-ylmethyl ester hydrochloride]",0.25
9,"CCNC(=O)Nc1cc2c(-c3ccnc(CCC(N)=O)c3)ccc(CNC(=O)OCCOC)c2cn1 [Example 177, [5-[2-(2-carbamoyl-ethyl)-pyridin-4-yl]-3-(3-ethyl-ureido)-isoquinolin-8-ylmethyl]-carbamic acid 2-methoxy-ethyl ester]",8
10,"CCNC(=O)Nc1cc2c(-c3ccncc3)ccc(CNC(=O)CCCNC(=O)OC(C)(C)C)c2cn1 [Example 56, (3-{[3-(3-ethyl-ureido)-5-pyridin-4-yl-isoquinolin-8-ylmethyl]-carbamoyl}-propyl)-carbamic acid tert-butyl ester]",1
11,"C#CCOC(=O)NCc1ccc(-c2ccnc(C#N)c2)c2cc(NC(=O)NCC)ncc12 [Example 128, [5-(2-cyano-pyridin-4-yl)-3-(3-ethyl-ureido)-isoquinolin-8-ylmethyl]-carbamic acid prop-2-ynyl ester]",1
12,"CCNC(=O)Nc1cc2c(-c3ccnc(OC)c3)ccc(CNC(=O)OC)c2cn1 [Example 162, [3-(3-ethyl-ureido)-5-(2-methoxy-pyridin-4-yl)-isoquinolin-8-ylmethyl]-carbamic acid methyl ester]",1
13,"CCNC(=O)Nc1cc2c(-c3ccncc3)ccc(CNC(=O)OCCCN3CCCCC3)c2cn1.Cl [Example 92, [3-(3-ethyl-ureido)-5-pyridin-4-yl-isoquinolin-8-ylmethyl]-carbamic acid 3-piperidin-1-yl-propyl ester hydrochloride]",4
14,"CCNC(=O)Nc1cc2c(-c3ccncc3)ccc(CNC(=O)OCCN3C(=O)CCC3=O)c2cn1.Cl [Example 97, [3-(3-ethyl-ureido)-5-pyridin-4-yl-isoquinolin-8-ylmethyl]-carbamic acid 2-(2,5-dioxo-pyrrolidin-1-yl)-ethyl ester hydrochloride]",2
15,"C#CCOC(=O)NCc1ccc(F)c2cc(NC(=O)NCC)ncc12 [Example 150, [3-(3-ethyl-ureido)-5-fluoro-isoquinolin-8-ylmethyl]-carbamic acid prop-2-ynyl ester]",1
16,"CCNC(=O)Nc1cc2c(-c3ccnc(CCCO)c3)ccc(CNC(=O)OC)c2cn1 [Example 192, {3-(3-ethyl-ureido)-5-[2-(3-hydroxy-propyl)-pyridin-4-yl]-isoquinolin-8-ylmethyl}-carbamic acid methyl ester]",2
17,"CCNC(=O)Nc1cc2cccc(CNC(=O)OCCC#N)c2cn1.Cl [Example 32, [3-(3-ethyl-ureido)-isoquinolin-8-ylmethyl]-carbamic acid 2-cyano-ethyl ester hydrochloride]",4
18,"CCNC(=O)Nc1cc2c(-c3ccncc3)ccc(CNC(=O)CC(N)=O)c2cn1 [Example 52, N-[3-(3-ethyl-ureido)-5-pyridin-4-yl-isoquinolin-8-ylmethyl]-malonamide]",2
19,"CCNC(=O)Nc1cc2c(-c3ccnc(C)c3)ccc(CNC(=O)OC)c2cn1 [Example 175, [3-(3-ethyl-ureido)-5-(2-methyl-pyridin-4-yl)-isoquinolin-8-ylmethyl]-carbamic acid methyl ester]",0.5
20,"CCNC(=O)Nc1cc2c(-c3ccncc3)ccc(CNC(=O)CC3CC3)c2cn1 [Example 57, 2-cyclopropyl-N-[3-(3-ethyl-ureido)-5-pyridin-4-yl-isoquinolin-8-ylmethyl]-acetamide]",0.5
21,"CCNC(=O)Nc1cc2c(-c3ccnc(OC)c3)ccc(CNC(=O)OCCOC)c2cn1 [Example 117, [3-(3-ethyl-ureido)-5-(2-methoxy-pyridin-4-yl)-isoquinolin-8-ylmethyl]-carbamic acid 2-methoxy-ethyl ester]",1
22,"CCNC(=O)Nc1cc2c(-c3cc(C)ncc3C)ccc(CNC(=O)OC)c2cn1.Cl [Example 190, [5-(2,5-dimethyl-pyridin-4-yl)-3-(3-ethyl-ureido)-isoquinolin-8-ylmethyl]-carbamic acid methyl ester hydrochloride]",4
23,"CCNC(=O)Nc1cc2c(-c3ccnc(CO)c3)ccc(CNC(=O)OCCOC)c2cn1 [Example 122, [3-(3-ethyl-ureido)-5-(2-hydroxymethyl-pyridin-4-yl)-isoquinolin-8-ylmethyl]-carbamic acid 2-methoxy-ethyl ester]",4
24,"CCNC(=O)Nc1cc2cccc(CNC(=O)OCC3CC3)c2cn1.Cl [Example 28, [3-(3-ethyl-ureido)-isoquinolin-8-ylmethyl]-carbamic acid cyclopropylmethyl ester hydrochloride]",4
25,"CCNC(=O)Nc1cc2cccc(CNC(=O)c3cncn3C)c2cn1 [Example 22, 3-methyl-3H-imidazole-4-carboxylic acid [3-(3-ethyl-ureido)-isoquinolin-8-ylmethyl]-amide]",4
26,"CCNC(=O)Nc1cc2cccc(CNC(=O)CN(C)C)c2cn1 [Example 19, 2-dimethylamino-N-[3-(3-ethyl-ureido)-isoquinolin-8-ylmethyl]-acetamide]",8
27,"CCNC(=O)Nc1cc2c(-c3ccncc3C)ccc(CNC(=O)OC)c2cn1.Cl [Example 185, [3-(3-ethyl-ureido)-5-(3-methyl-pyridin-4-yl)-isoquinolin-8-ylmethyl]-carbamic acid methyl ester hydrochloride]",2
